Read-outs that look alike come from different tables or passages of the source.
What was measured:
[1] = tested on: patient-derived xenografts; experiment: Limiting dilution and serial transplantation into secondary mouse recipients; format: in vivo
Method: 5×10^5 MHCC97L cells, 3.5×10^5 cells (for PDX1) and 1×10^5 cells (for PDX2) dissociated from HCC patient derived xenograft (PDX), were injected subcutaneously into the left flank of 4 to 5-week-old male BALB/c nude mice and NOD/SCID mice, respectively. 1×10^4 RIL-175 cells were injected into the right median lobe of the livers from 9 to 12-week-old male C57BL/6N mice. Size of subcutaneously xenografted tumors was measured by an external caliper and tumor volume was estimated by the equation: Volume=½ (Length×Width^2), where the length and width represent the largest and smallest diameters, respectively. Drug administration began when the subcutaneous tumor reached ˜0.05 cm3 in size or at day 5 post-injection (for RIL-175 cells), at which point mice were divided into four groups randomly for daily treatment with DMSO, ifenprodil (20 mg/kg/day, intraperitoneally), sorafenib (28 mg/kg/day, orally), or the combination. Ifenprodil and sorafenib were purchased from Selleckchem (#54091) and LC laboratories (#S-8502), respectively. The drug treatment was started after grouping, and lasted for 21 days. Tumor volume and body weight of each mouse were then measured every two days. The estimated tumor volume served as a guide for determining the day when the mice were sacrificed to take actual measurements on the resected tumors. The mice were sacrificed, and the tumor tissues were collected at the end of treatment. Part of the tumor tissues was snap-frozen in liquid nitrogen for protein extraction and immunoblot analysis. Part of the tissues was fixed in 4% paraformaldehyde (PFA) at room temperature for histological staining. The remaining tissues were dissociated into single cells for the limiting dilution spheroid formation assay. To evaluate the tumor-initiating and self-renewal abilities of the drug-treated tumors derived from MHCC97L cells and PDX1 in vivo, limiting dilution and serial transplantation assays were performed. 500, 1,000, 5,000, 10,000, 50,000 cells dissociated from the residual tumor tissues were injected subcutaneously into either flank of 4-5 week-old mice. No drug treatment was further applied. The mice were checked every two days, and tumor incidence and latency were recorded. To evaluate HCC metastases, 4×10^4 RIL-175 cells were injected through tail vein into 6- to 8-week-old male nude mice. Drug administration began at day 5 post-injection, and daily treatment with DMSO, ifenprodil (20 mg/kg/day, intraperitoneally), sorafenib (28 mg/kg/day, orally), or the combination was applied for 10 days before resection of lung tumors. At five and twelve days after the tail-vein injection, the mice were administered 100 mg/kg D-luciferin via peritoneal injection for bioluminescent imaging (using the PE IVIS Spectrum in vivo imaging system) to monitor the lung metastasis.
To determine the efficacy of the drug combination of IFEN and SOR in vivo, MHCC97L cell- and HCC patient-derived xenografts were implanted into mice. […] Briefly, HCC patient-derived xenograft was subcutaneously injected in NOD/SCID mice and treated with 20 mg/kg ifenprodil, 28 mg/kg sorafenib, or combination of ifenprodil and sorafenib, for 21 days. Protein lysates were collected from the resected tumors and analyzed by Western blot. […] Spheroid formation assay was performed on cells being harvested from the same residual xenografts to evaluate their self-renewal ability. […] Combined treatment of ifenprodil and sorafenib decreased the repropagation capability of HCC cells in vivo. Residual tumor cells were harvested from the drug(s)-treated patient-derived xenografts and 50,000, 10,000, 5,000, 1,000, and 500 cells were transplanted into secondary NOD/SCID mouse recipients (n=6 per group). Average tumor latency and incidence were recorded, and tumor-initiating cell frequency was calculated.

MHCC97L cells = experiment: MTT cell viability assay and drug interaction analysis; format: cell-based, human; settings: single drug
[2] = tested on: MHCC97L-derived and patient-derived xenografts; experiment: Western blot and immunohistochemistry of resected xenografts; format: in vivo, mouse; settings: HCC patient-derived xenograft PDX1
Method: 5×10^5 MHCC97L cells, 3.5×10^5 cells (for PDX1) and 1×10^5 cells (for PDX2) dissociated from HCC patient derived xenograft (PDX), were injected subcutaneously into the left flank of 4 to 5-week-old male BALB/c nude mice and NOD/SCID mice, respectively. 1×10^4 RIL-175 cells were injected into the right median lobe of the livers from 9 to 12-week-old male C57BL/6N mice. Size of subcutaneously xenografted tumors was measured by an external caliper and tumor volume was estimated by the equation: Volume=½ (Length×Width^2), where the length and width represent the largest and smallest diameters, respectively. Drug administration began when the subcutaneous tumor reached ˜0.05 cm3 in size or at day 5 post-injection (for RIL-175 cells), at which point mice were divided into four groups randomly for daily treatment with DMSO, ifenprodil (20 mg/kg/day, intraperitoneally), sorafenib (28 mg/kg/day, orally), or the combination. […] Tumor volume and body weight of each mouse were then measured every two days. […] The mice were checked every two days, and tumor incidence and latency were recorded. […]
Cells or homogenized tissues collected from xenografts were lysed by 2X RIPA lysis buffer supplemented with protease inhibitor cocktail (ProBlock™ Gold Mammalian, Goldbio), PhosSTOP (Roche), 1 mM Na3VO4, and 1 mM NaF. […] Supernatants were quantified using the Bradford assay (BioRad). […]

NMDAR subunits = settings: cited from earlier work
HCC patients [3] = settings: Asian study; cited from earlier work
HCC patients [4] = settings: cited from earlier work
HCC patients [5] = settings: phase III, first line; cited from earlier work
[6] = 50,000 cells transplanted, n=6 per group
[7] = 50,000 cells transplanted, secondary NOD/SCID recipients

CC(C(O)c1ccc(O)cc1)N1CCC(Cc2ccccc2)CC1 (centres unmarked) [Ifenprodil, ifenprodil]
Average tumor latency ([1]; 500 cells transplanted): 33 days
Tumor incidence ([1]; 500 cells transplanted): 4/6
Average tumor latency ([1]; 1,000 cells transplanted): 28.33 days
Tumor incidence ([1]; 1,000 cells transplanted): 6/6
Average tumor latency ([1]; 5,000 cells transplanted): 31.33 days
Tumor incidence ([1]; 5,000 cells transplanted): 6/6
Average tumor latency ([1]; 10,000 cells transplanted): 21 days
Tumor incidence ([1]; 10,000 cells transplanted): 6/6
Tumor incidence [1, 6]: 6/6
Average tumor latency [1, 7]: 24 days
HCC growth, NMDAR inhibitor alone (MHCC97L cells): did not significantly suppress
tumor vasculature (CD31-positive vessels) [2]: inhibited tumor vasculature
NMDAR subunit selectivity (NMDAR subunits): more selective for NMDAR1/NMDAR2B subunits
toxicity / safety as therapeutic agent (NMDAR subunits): tested safe in human
toxicity / safety as therapeutic agent (NMDAR subunits; listed as IFEN): known safety history

CNC(=O)c1cc(Oc2ccc(NC(=O)Nc3ccc(Cl)c(C(F)(F)F)c3)cc2)ccn1 [Sorafenib, sorafenib]
median overall survival (HCC patients [3]): 6.5 months
Average tumor latency ([1]; 500 cells transplanted): 34 days
Tumor incidence ([1]; 500 cells transplanted): 3/6
Average tumor latency ([1]; 1,000 cells transplanted): 29 days
Tumor incidence ([1]; 1,000 cells transplanted): 6/6
Average tumor latency ([1]; 5,000 cells transplanted): 21.67 days
Tumor incidence ([1]; 5,000 cells transplanted): 6/6
Average tumor latency ([1]; 10,000 cells transplanted): 21.33 days
Tumor incidence ([1]; 10,000 cells transplanted): 6/6
Tumor incidence [1, 6]: 6/6
Average tumor latency [1, 7]: 22.33 days
cancer stemness in the HCC mouse models after treatment ([1]; HCC mouse models): increased cancer stemness
median overall survival (HCC patients [4]; SHARP trial): 10.7 months
tolerability (HCC patients [4]; phase III trials): generally well tolerated
Median survival (HCC patients [5]): 9.9 months
discontinuation rate (HCC patients [5]): 33%
tumor vasculature (CD31-positive vessels) [2]: inhibited tumor vasculature
